What was measured:
Test in all cases: area under concentration-response curve (viability) (AUC (a.u.)); higher = less active
Settings in all cases: 48 h
CU-ACC1 = test system: CU-ACC1
Method in brief: (§1)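 Three adrenocortical carcinoma cell lines in 1,536-well plates received 23 nL of each library compound at 11 concentrations and were read with CellTiter-Glo after 48 h, with 15 minutes at room temperature before measuring luminescence. Vehicle and empty-well controls served for per-plate normalisation. AC50 and area under the curve were extracted from fitted concentration-response curves, discarding all curve classes other than inhibitory or non-responding.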

CU-ACC2 = test system: CU-ACC2
Method in brief: as §1

NCI-H295R = test system: NCI-H295R
Method in brief: as §1

| Compound | area under concentration-response curve (CU-ACC1) | area under concentration-response curve (CU-ACC2) | area under concentration-response curve (NCI-H295R) |
| --- | --- | --- | --- |
| CC(C)(C#N)c1cc(Cn2cncn2)cc(C(C)(C)C#N)c1 | 461 | 574 | 537 |
| Cn1cc(-c2nc(N[C@@H]3CCCC[C@@H]3N)c(F)c3c2C(=O)NC3)cn1 | 623 | 719 | 660 |
| OC(=O)C(CC/1=C/C(=O)NC2=CC=CC=C12)NC(=O)C3=CC=C(Cl)C=C3 (stereo not drawn) | 521 | 610 | 483 |
| COC1=CC=C(C=C1O)C/2=C/C(=O)C3=C(O2)C=C(O[C@@H]4O[C@H](CO[C@@H]5O[C@@H](C)[C@H](O)[C@@H](O)[C@H]5O)[C@@H](O)[C@H](O)[C@H]4O)C=C3O | 502 | 582 | 554 |
| CC1=C(C)C\2=C(S1)[N]3C(=NN=C3C(CC(N)=O)\N=C2C4=CC=C(Cl)C=C4)C (stereo not drawn) | 439 | 480 | 431 |
| CC[N+](CC)(CC)CCOc1cccc(OCC[N+](CC)(CC)CC)c1OCC[N+](CC)(CC)CC | 412 | 472 | 474 |
| CN(C)CC(C)(C)CNc1nn2c(-c3ccccc3)nnc2cc1C1CCC1 | 473 | 566 | 469 |
| CNC(=O)c1ccc(-c2cnc3ncc(Cc4ccc5ncccc5c4)n3n2)cc1F | 481 | 520 | 511 |
| COc1ccc([C@@H]2Sc3ccccc3N(CCN(C)C)C(=O)[C@@H]2OC(C)=O)cc1 | 473 | 576 | 533 |
| Cc1ccc([S+](=O)([O-])NC(=O)NN2CC3CCCC3C2)cc1 (stereo not drawn) | 537 | 629 | 579 |
| Cc1coc2c1C(=O)C(=O)c1c-2ccc2c1CCCC2(C)C | 433 | 479 | 456 |
| Cc1nnc(C(C)C)n1C1CC2CCC(C1)N2CCC(NC(=O)C1CCC(F)(F)CC1)c1ccccc1 (stereo not drawn) | 478 | 498 | 451 |
| C[C@]12CCC(=O)C(O)=C1CC[C@@H]1[C@@H]2CC[C@]2(C)C(=O)CC[C@@H]12 | 404 | 470 | 417 |
| O=C1\C=C(/OC2=C1C=CC=C2C3=CC=CC=C3)N4CCOCC4 | 498 | 550 | 515 |
| Oc1ccc(C2CNCCc3c2cc(O)c(O)c3Cl)cc1 (stereo not drawn) | 468 | 538 | 524 |
| O=C(NCCCNc1nc(Nc2cccc(NC(=O)N3CCCC3)c2)ncc1I)c1cccs1 | 498 | 482 | 539 |
| COc1ccc(-c2ccc3cc(C(=O)O)ccc3c2)cc1C12CC3CC(CC(C3)C1)C2 | 477 | 518 | 479 |
| O=C(c1c(F)ccc(N[S+](=O)([O-])N2CC[C@@H](F)C2)c1F)c1c[nH]c2ncc(-c3cnc(C4CC4)nc3)cc12 | 470 | 574 | 474 |
| Clc1ccccc1C(c1ccccc1)(c1ccccc1)n1cccn1 | 496 | 489 | 520 |
| O=C1O[C@]2(CC[C@@H](C(=O)Nc3ccn(-c4ccccc4F)n3)CC2)c2cnccc21 | 492 | 602 | 494 |
| COc1cc2ncnc(Nc3ccc(O)c(Br)c3)c2cc1OC | 479 | 602 | 528 |
| Cc1ncc([N+](=O)[O-])n1CC(C)O (stereo not drawn) | 554 | 644 | 566 |
| NC\1=N\C(=O)N(\C=C1)[C@@H]2CS[C@H](CO)O2 | 534 | 612 | 569 |

| Compound | area under concentration-response curve (CU-ACC1) | area under concentration-response curve (CU-ACC2) | area under concentration-response curve (NCI-H295R) |
| --- | --- | --- | --- |
| CC(=O)NC(CS)C(=O)O (stereo not drawn) | 413 | 466 | 457 |
| COc1cc2c(NC3CCN(C)CC3)nc(N3CCCN(C)CC3)nc2cc1OCCCN(C)C | 544 | 641 | 564 |
| C[C@H]1CN(C[C@@H](C)N1)C2=C(F)C3=C(C(=C2F)N)C(=O)\C(=C/N3C4CC4)C(O)=O | 512 | 503 | 537 |
| CC(=O)Nc1ccc(O)cc1 | 348 | 467 | 445 |
| CC(=O)NCCC(=O)N[C@@H](CCC(N)=O)C(=O)N[C@@H](CO)C(=O)N[C@@H](CCC(N)=O)C(=O)N[C@@H](CCC(N)=O)C(=O)N[C@H](C(=O)N[C@@H](Cc1ccccc1)C(=O)N[C@]1(C)CCCCCC/C=C\CCC[C@@](C)(C(=O)N[C@@H](CCC(N)=O)C(=O)N[C@@H](CC(N)=O)C(N)=O)NC(=O)[C@H](CC(C)C)NC(=O)[C@H](CC(C)C)NC(=O)[C@@H](CCCNC(=N)N)NC(=O)[C@H](Cc2c[nH]c3ccccc23)NC(=O)[C@H](CC(C)C)NC(=O)[C@H](CC(N)=O)NC1=O)[C@H](C)O | 425 | 575 | 546 |
| COc1cccc(Nc2ncnn3ccc(CN4CC[C@@H](N)[C@H](O)C4)c23)c1 | 399 | 534 | 552 |
| CNC(=O)CN1CCC(Oc2cc3c(Nc4cccc(Cl)c4F)ncnc3cc2OC)CC1 | 501 | 572 | 570 |
| Nc1nc(OC(c2ccc(-c3cccc(F)c3)cc2)C(F)(F)F)cc(-c2ccc(C[C@H](N)C(=O)O)cc2)n1 (stereo partly drawn) | 546 | 519 | 555 |
| O=C(O)c1ccc(CN2CCC(CN[C@@H]3C[C@H]3c3ccccc3)CC2)cc1 | 465 | 540 | 490 |
| COc1cc2ncnc(-n3nc(-c4ccccn4)nc3N)c2cc1OC | 458 | 551 | 489 |
| OC(c1ccc(-c2ccc(CN3CCN(Cc4ccncc4)CC3)cc2)c(F)c1)(C(F)(F)F)C(F)(F)F | 584 | 638 | 581 |
| CC(=O)Nc1nc(C)c(-c2ccc(Cl)c([S+](=O)([O-])NCCO)c2)s1 | 385 | 566 | 531 |
| Cc1c(F)cc(C(=O)NC2CC2)cc1-c1ccc(C(=O)NCC(C)(C)C)cn1 | 389 | 427 | 394 |
| O=S(=O)([O-])CCS | 539 | 518 | 551 |
| O=C1NNc2nc(CN3Cc4ccccc4C3)nc3cccc1c23 | 537 | 600 | 526 |
| C[C@]\12CC[C@H](O)CC1=C/CC3C2CC[C@@]\4(C)C3C\C=C4[N]5C=NC6=C5C=CC=C6 (stereo partly drawn) | 540 | 516 | 548 |
| CCCCCOC(=O)NC\1=N\C(=O)N(\C=C1F)[C@@H]2O[C@H](C)[C@@H](O)[C@H]2O | 512 | 606 | 559 |
| Oc1cc(O)cc(/C=C/c2ccc(O)c(O)c2)c1 | 519 | 511 | 525 |
| CN(C)[S+](=O)([O-])c1ccc2c(c1)C(=Cc1cc3c([nH]1)CCCC3)C(=O)N2 | 594 | 655 | 576 |
| Cc1c(OCC(F)(F)F)ccnc1C[S+]([O-])c1nc2ccccc2[nH]1 (stereo not drawn) | 526 | 624 | 571 |
| CC(=O)C1CCC2C3CC\C4=C\C(=O)CCC4(C)C3CCC12C (stereo not drawn) | 548 | 645 | 607 |
| CCC(C)N1\N=C/N(C1=O)C2=CC=C(C=C2)N3CCN(CC3)C4=CC=C(OC[C@H]5CO[C@@](C[N]6C=NC=N6)(O5)C7=CC=C(Cl)C=C7Cl)C=C4 (stereo partly drawn) | 556 | 676 | 574 |
| Clc1cccc(-c2ccc(-c3nnc(CCCc4ccc5cccnc5n4)o3)cc2)c1 | 547 | 627 | 594 |

Source: the supplement of paper PMC10949913
